Results as given in patent US8841276B2, “Fulvene and fulvalene analogs and their use in treating cancers” (Emory University, priority 2007, dated 2014).

Tests used:
[1] = tested on: light-induced retinal function loss; design: species or system Balb-C mice; conditions: mouse, in vivo
Procedure: Balb-C mice were exposed to dim (20 lux) or bright (10,000 lux) white light for 6 hours. Mice were injected with Fulvene-5, a triphenylmethane that inhibits NADPH oxidase, dissolved in vehicle (intralipid-DMSO) or vehicle alone. Intraperitoneal injections were given daily for two weeks. Electroretinograms (ERGs) were taken 0, 7, and 14 days following light exposure. Mice were exposed to either dim light (control) or bright light of an intensity that causes retinal degeneration (Light Induced Retinal Degeneration; LIRD). This is a classic rodent model of retinal degeneration. For each lighting condition, half the animals were injected with vehicle and the other half were injected with Fulvene 5. Electroretinograms (ERGs) of the treated mice were measured at one week post-exposure. An ERG is a measure of the change in electrical potential across the eyeball in response to a flash of light, and is used as an indication of retinal function.

Nox2 enzyme = target: T1, Nox2 enzyme (Homo sapiens, UniProt P04839); experiment: Inhibition of Nox2 enzyme: H2O2 production in PMA-stimulated Cos-phox cells (homovanillic acid assay); assay type: cell-based; conditions: 1 μM, 5 μM, or 20 μM, FIG. 1
T1 construct: expressed in transfected cells; host or cells: Cos-phox cells (COS-7 derived, per the cited Price et al. 2002; own knowledge)
T1 sequence (P04839 2-570 limits assumed): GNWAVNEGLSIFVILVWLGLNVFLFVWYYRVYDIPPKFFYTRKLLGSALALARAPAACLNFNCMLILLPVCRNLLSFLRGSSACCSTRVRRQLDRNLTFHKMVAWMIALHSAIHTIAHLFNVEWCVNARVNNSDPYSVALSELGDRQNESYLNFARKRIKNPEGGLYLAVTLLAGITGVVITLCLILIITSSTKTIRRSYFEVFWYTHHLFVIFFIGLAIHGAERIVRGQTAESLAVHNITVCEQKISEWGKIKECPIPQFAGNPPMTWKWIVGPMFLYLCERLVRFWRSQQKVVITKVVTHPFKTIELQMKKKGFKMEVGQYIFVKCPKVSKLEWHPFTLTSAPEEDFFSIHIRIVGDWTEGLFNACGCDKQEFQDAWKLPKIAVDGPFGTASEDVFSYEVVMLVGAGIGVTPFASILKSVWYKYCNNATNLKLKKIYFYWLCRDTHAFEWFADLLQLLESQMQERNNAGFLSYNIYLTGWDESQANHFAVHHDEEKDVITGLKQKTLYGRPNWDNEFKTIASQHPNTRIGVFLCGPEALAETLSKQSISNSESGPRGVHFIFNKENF
T1 sequence (P13498 2-195 partner limits assumed): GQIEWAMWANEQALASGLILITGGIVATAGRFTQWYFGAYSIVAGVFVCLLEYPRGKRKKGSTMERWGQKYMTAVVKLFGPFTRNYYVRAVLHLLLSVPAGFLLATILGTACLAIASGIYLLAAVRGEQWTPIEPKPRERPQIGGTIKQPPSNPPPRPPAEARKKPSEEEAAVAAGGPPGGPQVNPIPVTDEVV
Procedure: Various test compounds were examined for activity against Nox2 enzyme by determining hydrogen peroxide (H2O2) production in phorbol 12-myristate 13-acetate (PMA)-stimulated Cos-phox cells treated with different concentrations of vehicle control or a test compound listed in Table 1.
Cos-phox cells have been described previously in Price et al., Blood, 99: 2653-61 (2002), which is incorporated herein by reference.
H2O2 release was measured using the homovanillic acid assay as described previously in Martyn et al., Cellular Signalling, 18:69-82 (2006) and Perry et al., J. Invest. Dermatol., 126:2316-22 (2006), which are incorporated herein by reference. Briefly, 1.5-1.75×10^5 cells/well of a 12-well plate were seeded with Cos-phox cells. The following day, cells were washed once with Hank's balanced salt solution, stimulated with […] phorbol 12-myristate 13-acetate (PMA), and then preincubated for 15 minutes with either vehicle control or different concentrations (i.e., 1 μM, 5 μM, or 20 μM) of test compound no. 8, 10, 15, 16, 17, or 18 in 1 ml of media. The cells were then washed once with Hank's balanced salt solution. Vehicle control or different concentrations of test compound no. […] Fluorescence was read on a BioTek Synergy HT (BioTek Instruments Inc., Winooski, Vt., CA) with an excitation of 320 nm and emission of 440 nm. […]

Suppression of ERG b-wave amplitude [1] | Structure (SMILES) | Effect of bright light exposure on retinal function as measured by ERG ([1]; ip) | Inhibition of Nox2 enzyme (production of H2O2 relative to untreated control) (Nox2 enzyme)
no suppression of ERG amplitude | Cc1[nH]cnc1C=C1C=CC=C1 [Test compound 10, 4-(cyclopenta-2,4-dienylidinemethyl)-5-methyl-1H-imidazole] | precluded the damaging effects of bright light exposure on retinal function | –
– | CN(C)C=C1C=CC=C1 [compound 8] | – | inhibited Nox2 enzyme in a dose-dependent manner
